Laboratory results from patent US20130245081A1, “Compositions and Methods for Treating Amyotrophic Lateral Sclerosis” (priority 2009, published 2013).

Tests used:
monkeys = settings: single oral dose; cited from earlier work
rodents [1] = settings: single oral dose; cited from earlier work
dogs = settings: single oral dose; cited from earlier work
rodents [2] = assay: Single dose toxicity after oral administration, rodents; settings: in vivo
human subjects = settings: in vivo; cited from earlier work
patients with ALS = settings: Part 1

Compound | dose at which major excitation was displayed (monkeys) | doses at which death occurred (rodents [1]) | dose at which vomiting occurred (dogs) | human dose equivalent to the lethal rodent dose (rodents [2]) | human dose equivalent to the lethal rodent dose for a 70 kg individual (rodents [2]) | dose shown to cause somnolence in humans (human subjects) | initial single dose not tolerated (human subjects) | maximally tolerated dose for humans (Mirapex product insert) (human subjects) | effect of riluzole on change from baseline in ALSFRS-R scores (patients with ALS; across all treatment groups) | mean change from baseline to study endpoint in ALSFRS-R score (patients with ALS; placebo with riluzole)
CCCN[C@H]1CCc2nc(N)sc2C1 [pramipexole, (6S)-2-amino-4,5,6,7-tetrahydro-6-(propylamino)benzothiazole] | 3.5 mg/kg | 70 to 105 mg/kg | ≥ 0.0007 mg/kg | 7 to 12 mg/kg | 500 to 850 mg | 1.5 mg | greater than 0.20 mg | 4.5 mg/day | – | –
Nc1nc2ccc(OC(F)(F)F)cc2s1 [riluzole, reference compound] | – | – | – | – | – | – | – | – | no effect | −3.6
